Assay [1] relates to inflammatory factors such as ll6, ll1b, Tnf, and Tlr4. The assay can be described thus: High-throughput RT qPCR of inflammatory factors in decidua. The assay is classed as in vivo, mouse. Conditions: LPS-injected dams. How it is done:
FIGS. 3A & 3B. The transcript levels of several inflammatory factors such as 116, Illb, Tnf, and Tlr4, among others, were assessed in the decidual samples and increased expression was found in dams intra-amniotically injected with LPS that was abrogated upon treatment with nitazoxanide.
High-throughput RT qPCR: This was performed as previously described (Motomura et al., JCI Insight, 7, 2022). Briefly, total RNA was isolated from decidua with RNeasy Mini Kits (Qiagen), according to the manufacturer's instructions. RNA concentrations, purity, and integrity were evaluated with the NanoDrop 8000 spectrophotometer (Thermo Scientific, Wilmington, DE, USA) and the Bioanalyzer 2100 (Agilent Technologies, Wilmington, DE, USA). cDNA was synthesized by using SuperScript IV VILO Master Mix (Invitrogen by Thermo Fisher Scientific Baltics UAB, Vilnius, Lithuania). Gene expression profiling of the tissues was performed on the BioMark System for high-throughput RT-qPCR (Fluidigm, San Francisco, CA, USA) or the ABI 7500 Fast real-time PCR system (Applied Biosystems, Life Technologies Corporation, Pleasanton, CA, USA) with the TaqMan gene expression assays (Applied Biosystems, Life Technologies Corporation). […] Data were normalized by using multiple reference genes (Gusb, Hsp90abl, Gapdh, and Actb) averaged within each sample, and relative changes in transcript levels were calculated by the AACt method. […]

The test system of assay [2] is PHD3. The assay can be described thus: PHD3 protein levels in MELAS cybrid cells (immunoblot). Conditions: 10 μM, 24 h. In kind it is cell-based, human. How it is done:
FIGS. 14A-14D: PHD3 levels are reduced in MELAS cybrid cells and enhanced by nitazoxanide to increase MNRR1 levels. FIG. 14A: Transcript levels of PHD1, 2, and 3 in MELAS cybrid cells harboring the levels of heteroplasmy shown (data from). FIG. 14B: Protein levels of PHD3 in MELAS cybrid cells with 0% (CL9) and 70% heteroplasmy (DW7). GAPDH was probed as loading control. FIG. 14C: Equal amounts of MELAS cybrid cell lysates, treated with vehicle (DMSO), nitazoxanide, or tizoxanide (10 μM) for 24 h, were separated on an SDS-PAGE gel and probed for PHD1, PHD3, MNRR1, and Tubulin. FIG. 14D: Oxygen consumption measured from MELAS cybrid cells overexpressing PHD1 or PHD3. (n=4 biological replicates, error bars show SE).
(§1) Immunoblotting: Immunoblotting was performed as described previously. Cell lysates for immunoblotting were prepared using RIPA buffer (Abcam, Waltham, MA) and included a protease and phosphatase inhibitor cocktail (Sigma, St. Louis, MO). Total protein extracts were obtained by centrifugation at 21,000×g for 30 min at 4° C. The clear supernatants were transferred to new tubes and quantified using the Bradford reagent with BSA as standard (BioRad, Hercules. CA). […] For detection after immunoblotting, the SuperSignal™ West Pico PLUS substrate (ThermoFisher, Waltham, MA) was used to generate chemiluminescence signal, which was detected with X-Ray film (RadTech, Vassar, MI).
Background: A western blot detects proteins with antibodies after separation by electrophoresis.

Assay [3] concerns mtDNA harboring the m.3243A>G mutation. The assay can be described thus: Heteroplasmy by Haelll digestion of mtDNA fragment, DW7 cells. The assay is classed as cell-based, human. Particulars: 10 μM, 144 h. How it is done:
FIGS. 7A-7E: MNRR1 activation by tizoxanide enhances mtDNA biogenesis and mitophagy to shift heteroplasmy in MELAS cells. FIG. 7A: Oxygen consumption measured from MELAS cybrid cells treated with vehicle (DMSO) or tizoxanide (10 μM) for 48 h (n=4 biological replicates, error bars represent SE). FIG. 7B: Haelll restriction enzyme digestion of a PCR-amplified fragment of mtDNA harboring the m.3243A>G mutation from DW7 cells treated with vehicle (DMSO) or tizoxanide (10 μM) for 144 h. […] FIG. 7C: Genes identified using qPCR of MELAS cybrid cells stably overexpressing EV or MNRR1. FIG. 7D: MtDNA levels are shown relative to nuclear DNA (nDNA) (GAPDH) (n=5 biological replicates, error bars represent SE). FIG. 7E: Equal amounts of MELAS cybrid cell lysates, treated with vehicle (DMSO) or tizoxanide (10 μM) for 48 h, were separated on an SDS-PAGE gel and probed for PGC1a, PINK1, LC3 A/B, MNRR1, and Tubulin. FIG. 7F: Equal numbers of MELAS cells were treated as in FIG. 7E, separated on an SDS-PAGE gel, and probed for phospho-ubiquitin (S65) levels. Tubulin was probed as a loading control. In all figures, * indicates p<0.05, ** indicates p<0.005.
Restriction Enzyme Digestion: DNA was analyzed for the MELAS mutation as described previously. […]

The subject of assay [4] is MNRR1. Nature of the assay: MNRR1 immunoblot in several other human cell lines. In kind it is cell-based. Particulars: 10 μM, 24 h. The procedure:
FIGS. 5A-5E: FIG. 5A: Venn diagram showing activators identified in HEK293 and MDA-MB-468 cells. FIG. 5B: Equal amounts of MELAS cells treated with Vehicle (DMSO) or various MNRR1 activating compounds (10 μM) for 24 h were separated on an SDS-PAGE gel and probed for MNRR1 levels. Actin was probed as a loading control and numbers below represent an average and standard deviation (SD) of two biological replicates. FIGS. 5C-5E: Equal amounts of cell lysates from various cell lines treated with vehicle (DMSO) or tizoxanide (10 μM) for 24 h were separated on an SDS-PAGE gel and probed for MNRR1 plus loading controls GAPDH or tubulin.
as §1

`CC(=O)Oc1ccccc1C(=O)Nc1ncc([N+](=O)[O-])s1` [nitazoxanide, Nitazoxanide]: the “LPS-increased transcript levels of inflammatory factors in decidual samples” value in assay [1] is on record as “abrogated”. Further, in assay [2], the PHD3 protein level result is recorded as “increasing”.
As for `O=C(Nc1ncc([N+](=O)[O-])s1)c1ccccc1O` [tizoxanide, Tizoxanide], the “increase in proportion of WT mtDNA” value in assay [3] is recorded as “about 14%”. Moreover, the MNRR1 level entry in assay [4] is “increase of MNRR1”. In addition, the PHD3 protein level result in assay [2] is recorded as “most increased”.

Values taken from US20250241901A1, “ACTIVATION OF MNRR1 / CHCHD2 AS A THERAPEUTIC TARGET FOR MITOCHONDRIA ASSOCIATED DISORDERS” (Wayne State University, priority 2024, published 2025).
